In patent US8586755B2, “Substituted nicotinamides as KCNQ2/3 modulators” (Grünenthal GmbH, priority 2009, dated 2013):
pEC50: −log10 of the molar value.

Molecular target: T1, KCNQ2/3 channels (Homo sapiens, UniProt O43525+O43526)
T1 construct: expressed in transfected cells
Test: Fluorescence assay using a voltage sensitive dye (fluorimetry)
Assay type: cell-based
Details: CHO-K1 cells expressing KCNQ2/3 channels; for pEC50: agonistic activity; for Emax / Fluorimetry % efficacy (retigabine 50 μM = 100%): retigabine 50 μM = 100%; for Emax: read-out: Fluorimetry % efficacy (retigabine 50 μM = 100%)
Method in brief: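 Agonist EC50s come from the F2 vs F1 fluorescence comparison, F2 taken at the peak after KCl depolarisation (92 mM final) and F1 after 30 min compound exposure at room temperature. Assay uses KCNQ2/3-expressing CHO-K1 cells stained 45 min with a red voltage-sensitive dye in pH 7.4 ES buffer.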

pEC50	Emax	Fluorimetry % efficacy (retigabine 50 μM = 100%)	SMILES
5.45	55%	–	O=C(NCc1cccc(O)c1)c1cccnc1SCCCc1ccc(F)cc1 [compound 84, 2-[3-(4-Fluorophenyl)-propylsulfanyl]-N-[(3-hydroxyphenyl)-methyl]-pyridine-3-carboxylic acid amide]
–	37%	–	Cc1ccc(CCNC(=O)c2cccnc2SCCCc2ccc(F)cc2)cc1 [compound 90, 2-[3-(4-Fluorophenyl)-propylsulfanyl]-N-[2-(p-tolyl)-ethyl]-pyridine-3-carboxylic acid amide]
6.60	250%	–	O=C(NCC1CC2CCC1C2)c1cccnc1SCCCc1cccc(F)c1 (centres unmarked) [compound 39, N-(5-Bicyclo[2.2.1]heptanyl-methyl)-2-[3-(3-fluorophenyl)-propylsulfanyl]-pyridine-3-carboxylic acid amide]
5.42	53%	–	O=C(NCc1ccc(O)cc1)c1cccnc1SCCCc1ccc(F)cc1 [compound 88, 2-[3-(4-Fluorophenyl)-propylsulfanyl]-N-[(4-hydroxyphenyl)-methyl]-pyridine-3-carboxylic acid amide]
7.03	181%	–	CC(CCc1cccc(C(F)(F)F)c1)Sc1ncccc1C(=O)NCCC(C)(C)C (centres unmarked) [compound 149, N-(3,3-Dimethyl-butyl)-2-[[1-methyl-3-[3-(trifluoromethyl)phenyl]-propyl]sulfanyl]-pyridine-3-carboxylic acid amide]
5.41	–	174%	O=C(NCC1CC2CCC1C2)c1cccnc1SCCCc1ccc(O)cc1 (centres unmarked) [compound 58]
6.50	210%	–	O=C(NCC1CCCOC1)c1cccnc1SCCC(F)(F)c1ccc(F)cc1 (centres unmarked) [compound 188, 2-[[3,3-Difluoro-3-(4-fluorophenyl)-propyl]sulfanyl]-N-(tetrahydro-pyran-3-yl-methyl)-pyridine-3-carboxylic acid amide]
6.33	164%	–	COc1ccccc1CCCNC(=O)c1cccnc1SCCCc1ccc(F)cc1 [compound 130, 2-[3-(4-Fluorophenyl)-propylsulfanyl]-N-[3-(2-methoxyphenyl)-propyl]-pyridine-3-carboxylic acid amide]
6.33	204%	–	O=C(NCC1CC2CCC1C2)c1cccnc1SCCCc1ccc(C(F)(F)F)cc1 (centres unmarked) [compound 34, N-(5-Bicyclo[2.2.1]heptanyl-methyl)-2-[3-[4-(trifluoromethyl)-phenyl]-propylsulfanyl]-pyridine-3-carboxylic acid amide]
6.78	143%	–	O=C(NCc1cccs1)c1cccnc1SC1CCCCC1Cc1ccccc1 (centres unmarked) [compound 108, 2-[(2-Benzyl-cyclohexyl)sulfanyl]-N-(thiophen-2-yl-methyl)-pyridine-3-carboxylic acid amide]
7.32	122%	–	CCC(CNC(=O)c1cccnc1SCCC(F)(F)c1ccc(F)cc1)OC (centres unmarked) [compound 195, 2-[[3,3-Difluoro-3-(4-fluorophenyl)-propyl]sulfanyl]-N-(2-methoxy-butyl)-pyridine-3-carboxylic acid amide]
7.85	276%	–	O=C(NCC1C2CCC1CC2)c1cccnc1SCCC(F)(F)c1ccc(F)c(F)c1 (centres unmarked) [compound 210, N-(7-Bicyclo[2.2.1]heptanyl-methyl)-2-[[3-(3,4-difluoro-phenyl)-3,3-difluoro-propyl]sulfanyl]-pyridine-3-carboxylic acid amide]
–	30%	–	O=C(NCC1CCc2ccccc2C1)c1cccnc1SCCCc1ccc(F)cc1 (centres unmarked) [compound 119, 2-[3-(4-Fluorophenyl)-propylsulfanyl]-N-(1,2,3,4-tetrahydro-naphthalen-2-yl-methyl)-pyridine-3-carboxylic acid amide]
6.42	234%	–	O=C(NCC1CCCO1)c1cccnc1SCCC(F)(F)c1ccc(F)cc1 (centres unmarked) [compound 179, 2-[[3,3-Difluoro-3-(4-fluorophenyl)-propyl]sulfanyl]-N-(tetrahydro-furan-2-yl-methyl)-pyridine-3-carboxylic acid amide]
6.32	166%	–	CC(CCc1ccccc1)Sc1ncccc1C(=O)NCc1cccs1 (centres unmarked) [compound 105, 2-[(1-Methyl-3-phenyl-propyl)sulfanyl]-N-(thiophen-2-yl-methyl)-pyridine-3-carboxylic acid amide]
7.00	103%	–	O=C(NCc1ccc(OC(F)(F)F)cc1)c1cccnc1SCCCc1ccc(F)cc1 [compound 79, 2-[3-(4-Fluorophenyl)-propylsulfanyl]-N-[[4-(trifluoromethyloxy)-phenyl]-methyl]-pyridine-3-carboxylic acid amide]
6.66	283%	–	O=C(NCC1CC2CCC1C2)c1cccnc1SCCCc1cc(F)cc(F)c1 (centres unmarked) [compound 61, N-(5-Bicyclo[2.2.1]heptanyl-methyl)-2-[3-(3,5-difluoro-phenyl)-propylsulfanyl]-pyridine-3-carboxylic acid amide]

pEC50	Emax	Fluorimetry % efficacy (retigabine 50 μM = 100%)	SMILES
7.49	195%	–	CCCCCNC(=O)c1cccnc1SCCC(F)(F)c1ccc(F)cc1 [compound 192, 2-[[3,3-Difluoro-3-(4-fluorophenyl)-propyl]sulfanyl]-N-pentyl-pyridine-3-carboxylic acid amide]
5.83	96%	–	O=C(NCc1ccc2cccnc2c1)c1cccnc1SCCCc1ccc(F)cc1 [compound 150, 2-[3-(4-Fluorophenyl)-propylsulfanyl]-N-(quinolin-7-yl-methyl)-pyridine-3-carboxylic acid amide]
5.59	193%	–	O=C(NCc1ncco1)c1cccnc1SCCCc1ccc(F)cc1 [compound 146, 2-[3-(4-Fluorophenyl)-propylsulfanyl]-N-(oxazol-2-yl-methyl)-pyridine-3-carboxylic acid amide]
6.80	159%	–	O=C(NCC1CCCCCC1)c1cccnc1SCCCc1ccc(F)cc1 [compound 41, N-(Cycloheptyl-methyl)-2-[3-(4-fluorophenyl)-propylsulfanyl]-pyridine-3-carboxylic acid amide]
–	23%	–	Cc1cc(C)cc(CNC(=O)c2cccnc2SCCC(F)(F)c2ccc(F)cc2)c1 [compound 184, 2-[[3,3-Difluoro-3-(4-fluorophenyl)-propyl]sulfanyl]-N-[(3,5-dimethyl-phenyl)-methyl]-pyridine-3-carboxylic acid amide]
7.13	176%	–	CC(CSc1ncccc1C(=O)NCc1cccs1)Sc1ccccc1 (centres unmarked) [compound 16]
6.89	–	176%	O=C(NCc1cccs1)c1cccnc1SCCCc1ccc(F)cc1 [compound 17]
6.36	161%	–	CC(C)CCCSc1ncccc1C(=O)NCc1cccs1 [compound 5, 2-(4-Methyl-pentylsulfanyl)-N-(thiophen-2-yl-methyl)-pyridine-3-carboxylic acid amide]
6.63	191%	–	CCCCCCNC(=O)c1cccnc1SCCC(F)(F)c1ccc(F)cc1 [compound 186, 2-[[3,3-Difluoro-3-(4-fluorophenyl)-propyl]sulfanyl]-N-hexyl-pyridine-3-carboxylic acid amide]
7.46	160%	–	O=C(NCC1CCCCCC1)c1cccnc1SCCC(F)(F)c1ccc(F)cc1 [compound 117, N-(Cycloheptyl-methyl)-2-[[3,3-difluoro-3-(4-fluorophenyl)-propyl]sulfanyl]-pyridine-3-carboxylic acid amide]
6.66	183%	–	O=C(NCC1CC2CCC1C2)c1cccnc1SCCOc1cccc(C(F)(F)F)c1 (centres unmarked) [compound 47, N-(5-Bicyclo[2.2.1]heptanyl-methyl)-2-[2-[3-(trifluoromethyl)-phenoxy]-ethylsulfanyl]-pyridine-3-carboxylic acid amide]
5.51	191%	–	O=C(NCC1CC2CCC1C2)c1cccnc1CCCS(=O)(=O)c1cccc(C(F)(F)F)c1 (centres unmarked) [compound 32, N-(5-Bicyclo[2.2.1]heptanyl-methyl)-2-[3-[[3-(trifluoromethyl)phenyl]sulfonyl]-propyl]-pyridine-3-carboxylic acid amide]
6.68	83%	–	O=C(NCc1cccc(C(F)(F)F)c1)c1cccnc1SCCCc1ccc(F)cc1 [compound 59, 2-[3-(4-Fluorophenyl)-propylsulfanyl]-N-[[3-(trifluoromethyl)phenyl]-methyl]-pyridine-3-carboxylic acid amide]
6.27	89%	–	CC(C)(CCNC(=O)c1cccnc1SCCCc1ccc(F)cc1)c1ccccc1 [compound 163, 2-[3-(4-Fluorophenyl)-propylsulfanyl]-N-(3-methyl-3-phenyl-butyl)-pyridine-3-carboxylic acid amide]
7.01	260%	–	O=C(NCC1C2CCC1CC2)c1cccnc1SCCCc1ccc(F)cc1 (centres unmarked) [compound 142, N-(7-Bicyclo[2.2.1]heptanyl-methyl)-2-[3-(4-fluorophenyl)-propylsulfanyl]-pyridine-3-carboxylic acid amide]
6.17	113%	–	O=C(NCc1cccc(-c2ccncc2)c1)c1cccnc1SCCCc1ccc(F)cc1 [compound 159, 2-[3-(4-Fluorophenyl)-propylsulfanyl]-N-[(3-pyridin-4-yl-phenyl)-methyl]-pyridine-3-carboxylic acid amide]
7.07	85%	–	O=C(NCc1ccc2c(c1)CCO2)c1cccnc1SCCCc1ccc(F)cc1 [compound 72, N-(2,3-Dihydro-benzofuran-5-yl-methyl)-2-[3-(4-fluorophenyl)-propylsulfanyl]-pyridine-3-carboxylic acid amide]
